According to PubChem BioAssay (NCI):
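The compound was tested at five concentrations on cells cultured in 96-well plates, with a 48-hour exposure period. GI50 marks 50% less growth. TGI marks complete inhibition of growth.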

What was measured:
Assay in all cases: NCI-60 cell line screen, 48 h
EKVX NSCLC = test system: EKVX NSCLC
SK-OV-3 ovarian = test system: SK-OV-3 ovarian
MDA-MB-435 = test system: MDA-MB-435
HCT-116 colon = test system: HCT-116 colon
COLO 205 colon = test system: COLO 205 colon
TK-10 renal = test system: TK-10 renal
ACHN renal = test system: ACHN renal
OVCAR-8 ovarian = test system: OVCAR-8 ovarian
M14 melanoma = test system: M14 melanoma
HL-60(TB) leukemia = test system: HL-60(TB) leukemia
UACC-62 melanoma = test system: UACC-62 melanoma
NCI-H226 lung = test system: NCI-H226 lung
SF-268 CNS = test system: SF-268 CNS
SNB-19 CNS = test system: SNB-19 CNS
OVCAR-3 ovarian = test system: OVCAR-3 ovarian
CAKI-1 renal = test system: CAKI-1 renal
HCT-15 colon = test system: HCT-15 colon
SW-620 colon = test system: SW-620 colon
SK-MEL-5 melanoma = test system: SK-MEL-5 melanoma
RPMI-8226 leukemia = test system: RPMI-8226 leukemia
NCI/ADR-RES ovarian = test system: NCI/ADR-RES ovarian
HOP-92 NSCLC = test system: HOP-92 NSCLC
NCI-H23 lung = test system: NCI-H23 lung
A498 renal = test system: A498 renal
NCI-H460 lung = test system: NCI-H460 lung
CCRF-CEM leukemia = test system: CCRF-CEM leukemia
LOX IMVI melanoma = test system: LOX IMVI melanoma
SNB-75 CNS = test system: SNB-75 CNS
RXF 393 renal = test system: RXF 393 renal
OVCAR-4 ovarian = test system: OVCAR-4 ovarian
SR leukemia = test system: SR leukemia
HOP-62 NSCLC = test system: HOP-62 NSCLC
HT29 colon = test system: HT29 colon
MALME-3M melanoma = test system: MALME-3M melanoma
UACC-257 melanoma = test system: UACC-257 melanoma
KM12 colon = test system: KM12 colon
SK-MEL-28 melanoma = test system: SK-MEL-28 melanoma
OVCAR-5 ovarian = test system: OVCAR-5 ovarian
MDA-MB-231 breast = test system: MDA-MB-231 breast
SN12C renal = test system: SN12C renal
NCI-H522 lung = test system: NCI-H522 lung
T-47D breast = test system: T-47D breast
HS 578T breast = test system: HS 578T breast
SF-295 CNS = test system: SF-295 CNS
U251 CNS = test system: U251 CNS
IGROV1 ovarian = test system: IGROV1 ovarian
SF-539 CNS = test system: SF-539 CNS
HCC-2998 colon = test system: HCC-2998 colon
MOLT-4 leukemia = test system: MOLT-4 leukemia
SK-MEL-2 melanoma = test system: SK-MEL-2 melanoma
786-0 renal = test system: 786-0 renal
A549 NSCLC = test system: A549 NSCLC
K-562 leukemia = test system: K-562 leukemia
UO-31 renal = test system: UO-31 renal
DU-145 prostate = test system: DU-145 prostate
BT-549 breast = test system: BT-549 breast
MCF7 breast = test system: MCF7 breast
PC-3 prostate = test system: PC-3 prostate

CCOC(=O)c1ccc2c(c1)c1c(C)c3ccncc3c(C)c1n2C showed a GI50 (EKVX NSCLC) of 0.384 µM, a TGI (EKVX NSCLC) of 2.37 µM and a GI50 (SK-OV-3 ovarian) of 0.721 µM. It also gave a TGI (SK-OV-3 ovarian) of 2.99 µM, a GI50 (MDA-MB-435) of 0.649 µM and a TGI (MDA-MB-435) of 1.96 µM. For the same molecule, the GI50 (HCT-116 colon) was 0.287 µM, the TGI (HCT-116 colon) was 1.38 µM and the GI50 (COLO 205 colon) was 0.35 µM. It also gave a TGI (COLO 205 colon) of 1.82 µM, a GI50 (TK-10 renal) of 1.15 µM and a TGI (TK-10 renal) of 3.05 µM. The GI50 (ACHN renal) was 0.265 µM, the TGI (ACHN renal) was 1.32 µM and the GI50 (OVCAR-8 ovarian) was 0.436 µM. For the same molecule, the TGI (OVCAR-8 ovarian) was 3.25 µM, the GI50 (M14 melanoma) was 0.505 µM and the TGI (M14 melanoma) was 2.08 µM. The GI50 (HL-60(TB) leukemia) was 1.16 µM, the TGI (HL-60(TB) leukemia) was 6.08 µM and the GI50 (UACC-62 melanoma) was 0.378 µM. The TGI (UACC-62 melanoma) was 1.73 µM, the GI50 (NCI-H226 lung) was 0.26 µM and the TGI (NCI-H226 lung) was 1.45 µM. The GI50 (SF-268 CNS) was 0.846 µM, the TGI (SF-268 CNS) was 3.48 µM and the GI50 (SNB-19 CNS) was 0.441 µM. It also gave a TGI (SNB-19 CNS) of 2.32 µM, a GI50 (OVCAR-3 ovarian) of 0.692 µM and a TGI (OVCAR-3 ovarian) of 2.62 µM. For the same molecule, the GI50 (CAKI-1 renal) was 0.287 µM, the TGI (CAKI-1 renal) was 1.49 µM and the GI50 (HCT-15 colon) was 0.381 µM. It also gave a TGI (HCT-15 colon) of 1.65 µM, a GI50 (SW-620 colon) of 0.322 µM and a TGI (SW-620 colon) of 1.8 µM. It also gave a GI50 (SK-MEL-5 melanoma) of 0.384 µM, a TGI (SK-MEL-5 melanoma) of 1.51 µM and a GI50 (RPMI-8226 leukemia) of 0.44 µM. It also gave a TGI (RPMI-8226 leukemia) of 2.44 µM, a GI50 (NCI/ADR-RES ovarian) of 0.47 µM and a TGI (NCI/ADR-RES ovarian) of 2.9 µM. The GI50 (HOP-92 NSCLC) was 0.303 µM, the TGI (HOP-92 NSCLC) was 2.36 µM and the GI50 (NCI-H23 lung) was 0.376 µM. It also gave a TGI (NCI-H23 lung) of 1.98 µM, a GI50 (A498 renal) of 0.664 µM and a TGI (A498 renal) of 2.05 µM. The GI50 (NCI-H460 lung) was 0.68 µM, the TGI (NCI-H460 lung) was 3.46 µM and the GI50 (CCRF-CEM leukemia) was 0.851 µM. The TGI (CCRF-CEM leukemia) was 8.64 µM, the GI50 (LOX IMVI melanoma) was 0.349 µM and the TGI (LOX IMVI melanoma) was 1.62 µM. It also gave a GI50 (SNB-75 CNS) of 0.38 µM, a TGI (SNB-75 CNS) of 1.95 µM and a GI50 (RXF 393 renal) of 0.349 µM. It also gave a TGI (RXF 393 renal) of 1.67 µM, a GI50 (OVCAR-4 ovarian) of 0.745 µM and a TGI (OVCAR-4 ovarian) of 2.55 µM. It also gave a GI50 (SR leukemia) of 0.269 µM, a TGI (SR leukemia) of 3.95 µM and a GI50 (HOP-62 NSCLC) of 0.408 µM. The TGI (HOP-62 NSCLC) was 2.16 µM, the GI50 (HT29 colon) was 0.362 µM and the TGI (HT29 colon) was 1.78 µM. It also gave a GI50 (MALME-3M melanoma) of 0.375 µM, a TGI (MALME-3M melanoma) of 1.68 µM and a GI50 (UACC-257 melanoma) of 0.472 µM. It also gave a TGI (UACC-257 melanoma) of 2.6 µM, a GI50 (KM12 colon) of 0.517 µM and a TGI (KM12 colon) of 2.58 µM. The GI50 (SK-MEL-28 melanoma) was 0.539 µM, the TGI (SK-MEL-28 melanoma) was 1.9 µM and the GI50 (OVCAR-5 ovarian) was 0.796 µM. The TGI (OVCAR-5 ovarian) was 2.84 µM, the GI50 (MDA-MB-231 breast) was 0.622 µM and the TGI (MDA-MB-231 breast) was 2.4 µM. The GI50 (SN12C renal) was 0.457 µM, the TGI (SN12C renal) was 2.31 µM and the GI50 (NCI-H522 lung) was 0.564 µM. It also gave a TGI (NCI-H522 lung) of 2.55 µM, a GI50 (T-47D breast) of 0.855 µM and a TGI (T-47D breast) of 3.5 µM. For the same molecule, the GI50 (HS 578T breast) was 0.543 µM, the TGI (HS 578T breast) was 3.24 µM and the GI50 (SF-295 CNS) was 0.516 µM. The TGI (SF-295 CNS) was 4.63 µM, the GI50 (U251 CNS) was 0.468 µM and the TGI (U251 CNS) was 1.98 µM. For the same molecule, the GI50 (IGROV1 ovarian) was 0.211 µM, the TGI (IGROV1 ovarian) was 1.46 µM and the GI50 (SF-539 CNS) was 0.467 µM. It also gave a TGI (SF-539 CNS) of 1.92 µM, a GI50 (HCC-2998 colon) of 1.09 µM and a TGI (HCC-2998 colon) of 2.95 µM. For the same molecule, the GI50 (MOLT-4 leukemia) was 0.393 µM, the TGI (MOLT-4 leukemia) was 3.19 µM and the GI50 (SK-MEL-2 melanoma) was 0.897 µM. For the same molecule, the TGI (SK-MEL-2 melanoma) was 2.58 µM, the GI50 (786-0 renal) was 0.642 µM and the TGI (786-0 renal) was 2.03 µM. It also gave a GI50 (A549 NSCLC) of 0.382 µM, a TGI (A549 NSCLC) of 1.88 µM and a GI50 (K-562 leukemia) of 0.413 µM. The TGI (K-562 leukemia) was 2.53 µM, the GI50 (UO-31 renal) was 0.165 µM and the TGI (UO-31 renal) was 1.4 µM. It also gave a GI50 (DU-145 prostate) of 0.546 µM, a TGI (DU-145 prostate) of 2.33 µM and a GI50 (BT-549 breast) of 1.27 µM. The TGI (BT-549 breast) was 3.7 µM, the GI50 (MCF7 breast) was 0.346 µM and the TGI (MCF7 breast) was 1.75 µM. The GI50 (PC-3 prostate) was 0.486 µM and the TGI (PC-3 prostate) was 2.15 µM.
